In the NIST ThermoML archive (doi:10.1021/je0504360):
± gives the expanded uncertainty stated by the source.

Columns and labels:
[1] = Crystal; DTA
[2] = Molar enthalpy of transition or fusion; details: Crystal; DSC

COc1ccc2cc3[n+](cc2c1OC)CCc1cc2c(cc1-3)OCO2.[Cl-]
Normal melting temperature [1]: 200.1 ± 1.1 °C | Molar enthalpy of transition or fusion [2]: 9.53 ± 0.213 kcal/mol
